According to US20260151372A1, “AZOTOMYCIN PRODRUGS WITH PREFERENTIAL TUMOR DELIVERY” (The Johns Hopkins University, priority 2022, published 2026):

How the values were obtained:
Format in all cases: in vitro ADME
[1] = Metabolic stability in CES1-KO mouse liver homogenate; conditions: tissue homogenate, 10 μM, 37° C.
Protocol: (§1) In vitro stability studies were done using CES1KO mouse plasma, human plasma, CES1-KO mouse liver, and human liver microsomes as previously described. For tissue homogenate stability studies, washed tissue was diluted 10-fold in 0.1 M potassium phosphate buffer and homogenized using probe sonication. Crude homogenate was then aliquoted to 1 mL, and spiked with 10 mM stock of the analyte in DMSO to achieve a 10 μM final concentration. The plasma stability of the prodrugs was determined by spiking the analyte in 1 mL of plasma. The plasma and tissues were incubated in an orbital shaker at 37° C. Stability in human liver microsomes was assessed at a final prodrug concentration of 1 μM with 0.2 mg/mL protein for microsomes. All the stability studies were conducted at predetermined times (0 and 60 min), where 50 μL aliquots of the mixture in triplicate were removed and the reaction was quenched by addition of 5 times the volume of ice-cold methanol spiked with the internal standard (losartan: 0.5 μM). The samples were vortex-mixed for 30 s and centrifuged at 10,000 g for 10 min at 4° C. An amount of 50 μL of the supernatant was diluted with 50 μL of water and transferred to a 250 μL polypropylene vial sealed with a Teflon cap. Prodrug disappearance was monitored over time using liquid chromatography and mass spectrometry (LC-MS).
(§2) Analyses were performed on a Dionex ultra high-performance LC system coupled with Q Exactive Focus orbitrap mass spectrometer (Thermo Fisher Scientific Inc., Waltham MA). Separation was achieved using Agilent Eclipse Plus column (100×2.1 mm i.d., maintained at 35° C.) packed with a 1.8 μm C18 stationary phase. The mobile phase consisted of 0.1% formic acid in water and 0.1% formic acid in acetonitrile, […] were operated at a flow rate of 0.3 mL/min for 7 min using gradient elution. The mass spectrometer controlled by Xcalibur software 4.0.27.13 (Thermo Scientific) was operated with a HESI ion source in positive ionization mode. Metabolites were identified in the full-scan mode (from m/z 50 to 1600) by comparing […] samples

[2] = Metabolic stability in human liver microsomes; conditions: 1 μM prodrug, 0.2 mg/mL protein
Protocol: as §1, §2

[3] = Plasma stability in CES1KO mouse plasma; conditions: 37° C., 60 min
Protocol: as §1, §2

[4] = Plasma stability in human plasma; conditions: 37° C.
Protocol: as §1, §2

[N-]=[N+]=CC(=O)CC[C@H](NC(=O)[C@H](CCC(=O)C=[N+]=[N-])NC(=O)CC[C@H](N)C(=O)O)C(=O)O [Azotomycin]
Liver Stability (% Remaining at 60 min) CES1^−/− Mouse Liver [1]: 89.7 ± 0.88%
Liver Stability (% Remaining at 60 min) Human Liver Microsomes [2]: 23.7 ± 0.333%
Plasma Stability (% Remaining at 60 min) CES1^−/− Mouse Plasma [3]: 105 ± 7.64%
Plasma Stability (% Remaining at 60 min) Human Plasma [4]: 74.3 ± 1.20%

CC(C)(C)OC(=O)[C@H](CCC(=O)C=[N+]=[N-])NC(=O)[C@H](CCC(=O)C=[N+]=[N-])NC(=O)CC[C@H](N)C(=O)OC(C)(C)C [Prodrug P1, tert-Butyl (S)-2-((S)-2-((S)-4-amino-5-(tert-butoxy)-5-oxopentanamido)-6-diazo-5-oxohexanamido)-6-diazo-5-oxohexanoate]
Liver Stability (% Remaining at 60 min) CES1^−/− Mouse Liver [1]: 87.0 ± 8.51%
Liver Stability (% Remaining at 60 min) Human Liver Microsomes [2]: 105 ± 0.859%
Plasma Stability (% Remaining at 60 min) CES1^−/− Mouse Plasma [3]: 101 ± 3.38%
Plasma Stability (% Remaining at 60 min) Human Plasma [4]: 104 ± 1.00%

CC(=O)N[C@@H](CCC(=O)N[C@@H](CCC(=O)C=[N+]=[N-])C(=O)N[C@@H](CCC(=O)C=[N+]=[N-])C(=O)OC(C)(C)C)C(=O)OC(C)(C)C [Prodrug P2]
Liver Stability (% Remaining at 60 min) CES1^−/− Mouse Liver [1]: 100 ± 1.67%
Liver Stability (% Remaining at 60 min) Human Liver Microsomes [2]: 85.3 ± 7.88%
Plasma Stability (% Remaining at 60 min) CES1^−/− Mouse Plasma [3]: 104 ± 2.31%
Plasma Stability (% Remaining at 60 min) Human Plasma [4]: 110 ± 4.70%

[N-]=[N+]=CC(=O)CC[C@H](NC(=O)[C@H](CCC(=O)C=[N+]=[N-])NC(=O)CC[C@H](N)C(N)=O)C(N)=O [Prodrug P5, (S)-4-Amino-N1-((S)-1-(((S)-1-amino-6-diazo-1,5-dioxohexan-2-yl)amino)-6-diazo-1,5-dioxohexan-2-yl)pentanediamide]
Liver Stability (% Remaining at 60 min) CES1^−/− Mouse Liver [1]: 4.33 ± 0.882%
Liver Stability (% Remaining at 60 min) Human Liver Microsomes [2]: 95.4 ± 0.595%
Plasma Stability (% Remaining at 60 min) CES1^−/− Mouse Plasma [3]: 87.7 ± 8.51%
Plasma Stability (% Remaining at 60 min) Human Plasma [4]: 97.3 ± 2.85%

CC(=O)N[C@@H](CCC(=O)N[C@@H](CCC(=O)C=[N+]=[N-])C(=O)N[C@@H](CCC(=O)C=[N+]=[N-])C(N)=O)C(N)=O [Prodrug P6, (S)-4-Acetamido-N1-((S)-1-(((S)-1-amino-6-diazo-1,5-dioxohexan-2-yl)amino)-6-diazo-1,5-dioxohexan-2-yl)pentanediamide]
Liver Stability (% Remaining at 60 min) CES1^−/− Mouse Liver [1]: 85.0 ± 5.86%
Liver Stability (% Remaining at 60 min) Human Liver Microsomes [2]: 98.5 ± 0.676%
Plasma Stability (% Remaining at 60 min) CES1^−/− Mouse Plasma [3]: 99.0 ± 3.51%
Plasma Stability (% Remaining at 60 min) Human Plasma [4]: 105 ± 1.76%

CN(C)CC(=O)N[C@@H](CCC(=O)N[C@@H](CCC(=O)C=[N+]=[N-])C(=O)N[C@@H](CCC(=O)C=[N+]=[N-])C(N)=O)C(N)=O [Prodrug P7, (S)—N1-((S)-1-(((S)-1-Amino-6-diazo-1,5-dioxohexan-2-yl)amino)-6-diazo-1,5-dioxohexan-2-yl)-4-(2-(dimethylamino)acetamido)pentanediamide]
Liver Stability (% Remaining at 60 min) CES1^−/− Mouse Liver [1]: 109 ± 10.0%
Liver Stability (% Remaining at 60 min) Human Liver Microsomes [2]: 95.3 ± 0.168%
Plasma Stability (% Remaining at 60 min) CES1^−/− Mouse Plasma [3]: 98.0 ± 12.5%
Plasma Stability (% Remaining at 60 min) Human Plasma [4]: 98.7 ± 2.67%

CN(C)CC(=O)N[C@@H](Cc1c[nH]c2ccccc12)C(=O)N[C@@H](CCC(=O)N[C@@H](CCC(=O)C=[N+]=[N-])C(=O)N[C@@H](CCC(=O)C=[N+]=[N-])C(N)=O)C(N)=O [Prodrug P8, (S)—N1-((S)-1-(((S)-1-Amino-6-diazo-1,5-dioxohexan-2-yl)amino)-6-diazo-1,5-dioxohexan-2-yl)-4-((S)-2-(2-(dimethylamino)acetamido)-3-(1H-indol-3-yl)propanamido)pentanediamide]
Liver Stability (% Remaining at 60 min) CES1^−/− Mouse Liver [1]: 49.7 ± 0.333%
Liver Stability (% Remaining at 60 min) Human Liver Microsomes [2]: 95.8 ± 0.141%
Plasma Stability (% Remaining at 60 min) CES1^−/− Mouse Plasma [3]: 99.3 ± 1.45%
Plasma Stability (% Remaining at 60 min) Human Plasma [4]: 109 ± 1.00%

CC(C)OC(=O)[C@H](CCC(=O)C=[N+]=[N-])NC(=O)[C@H](CCC(=O)C=[N+]=[N-])NC(=O)CC[C@H](N)C(=O)OC(C)C [Prodrug P9, Isopropyl (S)-2-((S)-2-((S)-4-amino-5-isopropoxy-5-oxopentanamido)-6-diazo-5-oxohexanamido)-6-diazo-5-oxohexanoate]
Liver Stability (% Remaining at 60 min) CES1^−/− Mouse Liver [1]: 0.320 ± 0.026%
Liver Stability (% Remaining at 60 min) Human Liver Microsomes [2]: >100%
Plasma Stability (% Remaining at 60 min) CES1^−/− Mouse Plasma [3]: 84.3 ± 10.5%
Plasma Stability (% Remaining at 60 min) Human Plasma [4]: 85.9 ± 3.63%

[N-]=[N+]=CC(=O)CC[C@H](NC(=O)[C@H](CCC(=O)C=[N+]=[N-])NC(=O)CC[C@H](NC(=O)CN)C(=O)[O-])C(=O)[O-].[Na+].[Na+] [Prodrug P10, Sodium (S)-2-((S)-2-((S)-4-(2-aminoacetamido)-4-carboxylatobutanamido)-6-diazo-5-oxohexanamido)-6-diazo-5-oxohexanoate]
Liver Stability (% Remaining at 60 min) CES1^−/− Mouse Liver [1]: 90.4 ± 2.76%
Liver Stability (% Remaining at 60 min) Human Liver Microsomes [2]: 90.4 ± 4.10%
Plasma Stability (% Remaining at 60 min) CES1^−/− Mouse Plasma [3]: 104 ± 3.67%
Plasma Stability (% Remaining at 60 min) Human Plasma [4]: 90.5 ± 6.35%

CCOC(=O)[C@H](CCC(=O)N[C@@H](CCC(=O)C=[N+]=[N-])C(=O)N[C@@H](CCC(=O)C=[N+]=[N-])C(=O)[O-])NC(=O)CN(C)C.[Na+] [Prodrug P11, Sodium (6S,11S,14S)-11,14-bis(4-diazo-3-oxobutyl)-6-(ethoxycarbonyl)-2-methyl-4,9,12-trioxo-2,5,10,13-tetraazapentadecan-15-oate]
Liver Stability (% Remaining at 60 min) CES1^−/− Mouse Liver [1]: 96.3 ± 1.80%
Liver Stability (% Remaining at 60 min) Human Liver Microsomes [2]: 103 ± 4.97%
Plasma Stability (% Remaining at 60 min) CES1^−/− Mouse Plasma [3]: 91.8 ± 4.16%
Plasma Stability (% Remaining at 60 min) Human Plasma [4]: 83.6 ± 1.76%

CN(C)CC(=O)N[C@@H](CCC(=O)N[C@@H](CCC(=O)C=[N+]=[N-])C(=O)N[C@@H](CCC(=O)C=[N+]=[N-])C(=O)[O-])C(=O)[O-].[Na+].[Na+] [Prodrug P12, Sodium (6S,11S,14S)-6-carboxylato-11,14-bis(4-diazo-3-oxobutyl)-2-methyl-4,9,12-trioxo-2,5,10,13-tetraazapentadecan-15-oate]
Liver Stability (% Remaining at 60 min) CES1^−/− Mouse Liver [1]: 111 ± 9.27%
Liver Stability (% Remaining at 60 min) Human Liver Microsomes [2]: 99.6 ± 3.50%
Plasma Stability (% Remaining at 60 min) CES1^−/− Mouse Plasma [3]: 95.6 ± 0.44%
Plasma Stability (% Remaining at 60 min) Human Plasma [4]: 76.2 ± 7.25%

CCOC(=O)[C@H](CCC(=O)C=[N+]=[N-])NC(=O)[C@H](CCC(=O)C=[N+]=[N-])NC(=O)CC[C@H](NC(=O)CN(C)C)C(=O)O [Prodrug P13, N^5—((S)-6-diazo-1-(((S)-6-diazo-1-ethoxy-1,5-dioxohexan-2-yl)amino)-1,5-dioxohexan-2-yl)-N^2-(dimethylglycyl)-L-glutamine]
Liver Stability (% Remaining at 60 min) CES1^−/− Mouse Liver [1]: 1.55 ± 0.77%
Liver Stability (% Remaining at 60 min) Human Liver Microsomes [2]: 109 ± 2.22%
Plasma Stability (% Remaining at 60 min) CES1^−/− Mouse Plasma [3]: 107 ± 6.6%
Plasma Stability (% Remaining at 60 min) Human Plasma [4]: 86.6 ± 2.69%

CN(C)CC(=O)N[C@@H](CCC(=O)N[C@@H](CCC(=O)C=[N+]=[N-])C(=O)N[C@@H](CCC(=O)C=[N+]=[N-])C(=O)[O-])C(=O)OC(C)(C)C.[Na+] [Prodrug P14, Sodium (6S,11S,14S)-6-(tert-butoxycarbonyl)-11,14-bis(4-diazo-3-oxobutyl)-2-methyl-4,9,12-trioxo-2,5,10,13-tetraazapentadecan-15-oate]
Liver Stability (% Remaining at 60 min) CES1^−/− Mouse Liver [1]: 82.4 ± 4.03%
Liver Stability (% Remaining at 60 min) Human Liver Microsomes [2]: 103 ± 2.31%
Plasma Stability (% Remaining at 60 min) CES1^−/− Mouse Plasma [3]: 111 ± 4.09%
Plasma Stability (% Remaining at 60 min) Human Plasma [4]: 96.2 ± 3.21%

CN(C)CC(=O)N[C@@H](CCC(=O)N[C@@H](CCC(=O)C=[N+]=[N-])C(=O)N[C@@H](CCC(=O)C=[N+]=[N-])C(=O)OC(C)(C)C)C(=O)[O-].[Na+] [Prodrug P15, Sodium N^5—((S)-1-(((S)-1-(tert-butoxy)-6-diazo-1,5-dioxohexan-2-yl)amino)-6-diazo-1,5-dioxohexan-2-yl)-N^2-(dimethylglycyl)-L-glutaminate]
Liver Stability (% Remaining at 60 min) CES1^−/− Mouse Liver [1]: 99.9 ± 3.45%
Liver Stability (% Remaining at 60 min) Human Liver Microsomes [2]: 93.2 ± 4.29%
Plasma Stability (% Remaining at 60 min) CES1^−/− Mouse Plasma [3]: >100%
Plasma Stability (% Remaining at 60 min) Human Plasma [4]: 104 ± 8.45%

CC(C)C[C@H](N)C(=O)N[C@@H](CCC(=O)N[C@@H](CCC(=O)C=[N+]=[N-])C(=O)N[C@@H](CCC(=O)C=[N+]=[N-])C(=O)[O-])C(=O)[O-].[Na+].[Na+] [Prodrug P16, Sodium (S)-2-((S)-2-((S)-4-((S)-2-amino-4-methylpentanamido)-4-carboxylatobutanamido)-6-diazo-5-oxohexanamido)-6-diazo-5-oxohexanoate]
Liver Stability (% Remaining at 60 min) CES1^−/− Mouse Liver [1]: 4.50 ± 1.58%
Liver Stability (% Remaining at 60 min) Human Liver Microsomes [2]: 91.0 ± 1.01%
Plasma Stability (% Remaining at 60 min) CES1^−/− Mouse Plasma [3]: 4.17 ± 0.58%
Plasma Stability (% Remaining at 60 min) Human Plasma [4]: 87.4 ± 1.61%
